Test results: patent US9133207B2, “Tetrandrine derivatives with substituted 5-carbon, preparation method and use thereof” (Hangzhou Bensheng Pharmaceutical Co., Ltd., priority 2011, dated 2015)
≈ marks a conversion by molar mass, not a printed value. One block for each compound: values may come before it.

Tests used:
[1] = tested on: PANC-1 (pancreatic cancer); test: Solid tumor cell growth inhibition, MTT, 72 h (Example 7); assay type: cell-based, human; settings: 72 h, MTT, PANC-1; for IC50 / IC90: Homo sapiens
Procedure: (§1) Human solid tumor cell lines: Hep-2 (laryngeal carcinoma), A549 (human lung cancer), CaES-17 (esophageal cancer cell), PC-3 (prostate cancer), CNE (nasopharyngeal carcinoma cell) and SK-OV-3 (ovarian cancer cell), all of which are purchased from China Center For Type Culture Collection; RKO (human colon adenocarcinoma cell), MGC 803 (human gastric cancer cell), MG63 (osteosarcoma), and U87 MG (malignant glioma cell), all of which are purchased from Fuxiang Bio-tech Co. Ltd., Shanghai, China; PANC-1 (pancreatic cancer), Huh? (human liver cancer cell), Becap37 (human breast cancer cell), and Hela (human cervical cancer cell), all of which are donated by Cancer Research Institute of Zhejiang University, China.
(§2) Reagents: the same as in Example 5.
(§3) Obtaining 4000 well-growing human solid tumor cells and inoculating them into wells of a 96-well cell culture plate. The culture medium is DMEM High Glucose cell culture medium containing 10% fetal bovine serum. The plate is placed in a carbon dioxide cell incubator (5% CO2) at 37° C. and incubated for 24 hours. After been added with tetrandrine derivatives of different concentration and mixing uniformly, the plate is placed in a carbon dioxide cell incubator (5% CO2) at 37° C. and incubated for 72 hours. Then the viable cell concentration is determined by the MTT method and the cell viability (%) after drug treatment is calculated. In this experiment, the cell viability of control group (not treated with any compound) is set as 100%.

MG63 (osteosarcoma) = test: as above; assay type: cell-based, human; settings: 72 h, MTT, MG-63; for IC50 / IC90: Homo sapiens
Procedure: as §1, §2, §3

PC-3 (prostate cancer) = test: as above; assay type: cell-based, human; settings: 72 h, MTT, PC-3; for IC50 / IC90: Homo sapiens
Procedure: as §1, §2, §3

[2] = tested on: CaES-17 (esophageal cancer cell); test: as above; assay type: cell-based, human; settings: 72 h, MTT, CAES-17; for IC50 / IC90: Homo sapiens, CaEs17
Procedure: as §1, §2, §3

[3] = tested on: Becap37 (human breast cancer cell); test: as above; assay type: cell-based; settings: 72 h, MTT, Becap-37; for IC50 / IC90: Homo sapiens
Procedure: as §1, §2, §3

A549 (human lung cancer) = test: as above; assay type: cell-based; settings: 72 h, MTT, A549; for IC50 / IC90: Homo sapiens
Procedure: as §1, §2, §3

[4] = tested on: Huh7 (human liver cancer cell); test: as above; assay type: cell-based; settings: 72 h, MTT, Huh-7; for IC50 / IC90: Homo sapiens
Procedure: as §1, §2, §3

[5] = tested on: MGC 803 (human gastric cancer cell); test: as above; assay type: cell-based; settings: for IC50 / IC90: Homo sapiens
Procedure: as §1, §2, §3

[6] = tested on: H9 (acute lymphoblastic leukemia, ALL); test: Leukemia cell growth inhibition, MTT, 72 h (Example 5); assay type: cell-based, human; settings: 72 h, MTT; for IC50 / IC90: Homo sapiens
From the text: (§4) Leukemia cell lines: leukemia cell lines: K562/adr (drug-resistant, chronic myeloid leukemia, CML), NB4 (acute promyelocytic leukemia, AML), Kasumi-1 (acute myeloid leukemia M2 type, AML-M2), Jurkat (acute lymphoblastic leukemia, ALL), all of which are donated by Cancer Research Institute of Zhejiang University, China; and H9 (acute lymphoblastic leukemia, ALL), which is purchased from China Center for Type Culture Collection.
(§5) Reagents: The standard sample of tetrandrine (TTD) is purchased from Ci Yuan Biotechnology Co., Ltd., Shaanxi, China; and the 5-substituted tetrandrine derivatives of the present invention.
(§6) Obtaining 6000 well-growing leukemia cells and inoculating them into wells of a 96-well cell culture plate. The culture medium is a 1640 cell culture medium containing 10% fetal bovine serum. After adding the tetrandrine derivatives of different concentrations and mixing uniformly, placing the plate in a carbon dioxide cell incubator (5% CO2) at 37° C. and incubating for 72 hours. Then the viable cell concentration is determined by the MTT method.

[7] = tested on: K562/adr (drug-resistant, chronic myeloid leukemia, CML); test: as above; assay type: cell-based, human; settings: for IC50 / IC90: Homo sapiens, K562/Adr
From the text: as §4, §5, §6

[8] = tested on: Jurkat (acute lymphoblastic leukemia, ALL); test: as above; assay type: cell-based, human; settings: 72 h, MTT; for IC50 / IC90: Homo sapiens, Jurkat
From the text: as §4, §5, §6

[9] = tested on: Kasumi-1 (acute myeloid leukemia M2 type, AML-M2); test: as above; assay type: cell-based, human; settings: for IC50 / IC90: Homo sapiens, Kasumi 1
From the text: as §4, §5, §6

[10] = tested on: RPMI8226 (multiple myeloma); test: Multiple myeloma cell growth inhibition, MTT, 72 h (Example 6); assay type: cell-based, human; settings: for IC50 / IC90: Homo sapiens, RPMI-8226
Procedure: Multiple myeloma and lymphoma cell lines: RPMI8226 (multiple myeloma), purchased from Fuxiang Bio-tech Co. Ltd., Shanghai, China.
as §2
as §6, with “incubated” for “incubating”

[11] = tested on: NB4 (acute promyelocytic leukemia, AML); test: Leukemia cell growth inhibition, MTT, 72 h (Example 5); assay type: cell-based, human; settings: Homo sapiens; 72 h, MTT
From the text: as §4, §5, §6

IC50 [1]: 4.57 µg/mL (≈ 6.12 µM) | IC90 [1]: 9.5 µg/mL (≈ 12.7 µM) | IC50 (MG63 (osteosarcoma)): 1.48 µg/mL (≈ 1.98 µM) | IC90 (MG63 (osteosarcoma)): 4.45 µg/mL (≈ 5.96 µM) | IC50 (PC-3 (prostate cancer)): 4.98 µg/mL (≈ 6.67 µM) | IC90 (PC-3 (prostate cancer)): 9.43 µg/mL (≈ 12.6 µM) | IC50 [2]: 1.71 µg/mL (≈ 2.29 µM) | IC90 [2]: 9.9 µg/mL (≈ 13.3 µM) | IC50 [3]: 1.98 µg/mL (≈ 2.65 µM) | IC90 [3]: 4.4 µg/mL (≈ 5.89 µM) | IC50 (A549 (human lung cancer)): 4.5 µg/mL (≈ 6.02 µM) | IC90 (A549 (human lung cancer)): 11 µg/mL (≈ 14.8 µM) | IC50 [4]: 3.08 µg/mL (≈ 4.12 µM) | IC90 [4]: 5.77 µg/mL (≈ 7.73 µM) | IC50 [5]: 4.4 µg/mL (≈ 5.89 µM) | IC90 [5]: 6.85 µg/mL (≈ 9.17 µM) | IC50 [6]: 2.38 µg/mL (≈ 3.19 µM) | IC90 [6]: 5 µg/mL (≈ 6.69 µM) | IC50 ([7]; 72 h, MTT): 1.53 µg/mL (≈ 2.05 µM) | IC90 ([7]; 72 h, MTT): 3.91 µg/mL (≈ 5.23 µM) | IC50 [8]: 2.98 µg/mL (≈ 3.99 µM) | IC90 [8]: 13.8 µg/mL (≈ 18.5 µM) | IC50 [9]: 1.46 µg/mL (≈ 1.95 µM) | IC90 [9]: 7.46 µg/mL (≈ 9.99 µM) | IC50 ([10]; 72 h, MTT, RPMI8226): 0.15 µg/mL (≈ 0.201 µM) | IC90 ([10]; 72 h, MTT, RPMI8226): 2.12 µg/mL (≈ 2.84 µM)
Compound: COc1ccc2cc1Oc1ccc(cc1)C[C@H]1c3cc(c(OC)cc3CCN1C)Oc1c(OC)c(OC)c(COCCn3ccnc3)c3c1[C@H](C2)N(C)CC3 [BS-TE-418]

PANC-1 IC50 [1]: >10 µg/mL | PANC-1 IC90 [1]: >10 µg/mL | MG-63 IC50 (MG63 (osteosarcoma)): 9.93 µg/mL | MG-63 IC90 (MG63 (osteosarcoma)): 26.11 µg/mL | PC-3 IC50 (PC-3 (prostate cancer)): >10 µg/mL | PC-3 IC90 (PC-3 (prostate cancer)): >10 µg/mL | CAES-17 IC50 [2]: 9.89 µg/mL | CAES-17 IC90 [2]: 30.16 µg/mL | Becap-37 IC50 [3]: 9.95 µg/mL | Becap-37 IC90 [3]: >10 µg/mL | A549 IC50 (A549 (human lung cancer)): >16 µg/mL | A549 IC90 (A549 (human lung cancer)): >16 µg/mL | Huh-7 IC50 [4]: 8.54 µg/mL | Huh-7 IC90 [4]: 15.09 µg/mL | MGC-803 IC50 [5]: 18.95 µg/mL | MGC-803 IC90 [5]: 64.43 µg/mL | H9 IC50 [6]: >16 µg/mL | H9 IC90 [6]: >16 µg/mL | K562/ADR IC50 ([7]; 72 h, MTT): 3.70 µg/mL | K562/ADR IC90 ([7]; 72 h, MTT): 11.11 µg/mL | Jurkat IC50 [8]: >16 µg/mL | Jurkat IC90 [8]: >16 µg/mL | Kasumi-1 IC50 [9]: 7.74 µg/mL | Kasumi-1 IC90 [9]: >16 µg/mL | RPMI8226 IC50 ([10]; 72 h, MTT, RPMI8226): 1.95 µg/mL | RPMI8226 IC90 ([10]; 72 h, MTT, RPMI8226): 8 µg/mL
Compound: COc1ccc2cc1Oc1ccc(cc1)C[C@H]1c3cc(c(OC)cc3CCN1C)Oc1c(OC)c(OC)c(CO)c3c1[C@H](C2)N(C)CC3 [BS-TE-213]

IC50 [1]: 5.99 µg/mL (≈ 8.8 µM) | IC90 [1]: 9.31 µg/mL (≈ 13.7 µM) | IC50 (MG63 (osteosarcoma)): 3.07 µg/mL (≈ 4.51 µM) | IC90 (MG63 (osteosarcoma)): 9.69 µg/mL (≈ 14.2 µM) | IC50 (PC-3 (prostate cancer)): 6.67 µg/mL (≈ 9.8 µM) | IC90 (PC-3 (prostate cancer)): 10.5 µg/mL (≈ 15.4 µM) | IC50 [2]: 4.98 µg/mL (≈ 7.31 µM) | IC90 [2]: 18.4 µg/mL (≈ 27.1 µM) | IC50 [3]: 4.22 µg/mL (≈ 6.2 µM) | IC90 [3]: 6.88 µg/mL (≈ 10.1 µM) | IC50 (A549 (human lung cancer)): 5.61 µg/mL (≈ 8.24 µM) | IC90 (A549 (human lung cancer)): 9.75 µg/mL (≈ 14.3 µM) | IC50 [4]: 2.54 µg/mL (≈ 3.73 µM) | IC90 [4]: 6.16 µg/mL (≈ 9.05 µM) | IC50 [5]: 5.16 µg/mL (≈ 7.58 µM) | IC90 [5]: 7.5 µg/mL (≈ 11 µM) | IC50 [6]: 4.64 µg/mL (≈ 6.82 µM) | IC90 [6]: 7.26 µg/mL (≈ 10.7 µM) | IC50 ([7]; 72 h, MTT): 1.42 µg/mL (≈ 2.09 µM) | IC90 ([7]; 72 h, MTT): 5.71 µg/mL (≈ 8.39 µM) | IC50 [8]: 4.18 µg/mL (≈ 6.14 µM) | IC90 [8]: 10.3 µg/mL (≈ 15.2 µM) | IC50 [9]: 3.62 µg/mL (≈ 5.32 µM) | IC90 [9]: 11.8 µg/mL (≈ 17.4 µM) | IC50 ([10]; 72 h, MTT, RPMI8226): 0.28 µg/mL (≈ 0.411 µM) | IC90 ([10]; 72 h, MTT, RPMI8226): 2.09 µg/mL (≈ 3.07 µM)
Compound: CCOCc1c2c3c(c(OC)c1OC)Oc1cc4c(cc1OC)CCN(C)[C@H]4Cc1ccc(cc1)Oc1cc(ccc1OC)C[C@@H]3N(C)CC2 [BS-TE-419]

IC50 [1]: > 10 µg/mL | IC90 [1]: > 10 µg/mL | IC50 (MG63 (osteosarcoma)): 6.87 µg/mL (≈ 9.76 µM) | IC90 (MG63 (osteosarcoma)): 35.6 µg/mL (≈ 50.6 µM) | IC50 [2]: 7.2 µg/mL (≈ 10.2 µM) | IC90 [2]: 26.5 µg/mL (≈ 37.6 µM) | IC50 [3]: 1.62 µg/mL (≈ 2.3 µM) | IC90 [3]: 2.48 µg/mL (≈ 3.52 µM) | IC50 (A549 (human lung cancer)): 2.36 µg/mL (≈ 3.35 µM) | IC90 (A549 (human lung cancer)): 4.77 µg/mL (≈ 6.78 µM) | IC50 [4]: 8.16 µg/mL (≈ 11.6 µM) | IC90 [4]: 15.9 µg/mL (≈ 22.5 µM) | IC50 [5]: 1.26 µg/mL (≈ 1.79 µM) | IC90 [5]: 1.82 µg/mL (≈ 2.59 µM) | IC50 [6]: 1.19 µg/mL (≈ 1.69 µM) | IC90 [6]: 2 µg/mL (≈ 2.84 µM) | IC50 ([7]; 72 h, MTT): 0.1 µg/mL (≈ 0.142 µM) | IC90 ([7]; 72 h, MTT): 1.33 µg/mL (≈ 1.89 µM) | IC50 [8]: 0.91 µg/mL (≈ 1.29 µM) | IC90 [8]: 3.31 µg/mL (≈ 4.7 µM) | IC50 [9]: 0.5 µg/mL (≈ 0.71 µM) | IC90 [9]: 3.4 µg/mL (≈ 4.83 µM) | IC50 [11]: 2.05 µg/mL (≈ 2.91 µM) | IC90 [11]: 3.9 µg/mL (≈ 5.54 µM) | IC50 ([10]; 72 h, MTT, RPMI8226): 0.004 µg/mL (≈ 0.00568 µM) | IC90 ([10]; 72 h, MTT, RPMI8226): 0.29 µg/mL (≈ 0.412 µM)
Compound: COc1ccc2cc1Oc1ccc(cc1)C[C@H]1c3cc(c(OC)cc3CCN1C)Oc1c(OC)c(OC)c(CN3CC=CC3)c3c1[C@H](C2)N(C)CC3 [BS-TE-329]
anti-K562/adr activity increase over tetrandrine ([7]; compared with tetrandrine): ~4 fold | anti-RPMI8226 activity increase over tetrandrine ([10]; compared with tetrandrine): ~90 fold
